The values that follow come from ChEMBL document CHEMBL4765420, “Design, synthesis and biological evaluation of novel HDAC inhibitors with improved pharmacokinetic profile in breast cancer” (Eur J Med Chem, 2020).

Calls of active or inactive are those of the source. The rule behind the calls is not given here.

A short description of data set [1]: Half life in Beagle dog at 20 mg/kg, po by LC-MS/MS analysis. The settings on record: in vivo. The format is ADME, organism-based, Canis lupus familiaris.
For another data set, the target named is Histone deacetylase 4 (Homo sapiens, UniProt P56524). As to the kind of experiment: Inhibition of recombinant human N-terminal GST-tagged HDAC4 (627 to end residues) expressed in baculovirus infected Sf9 insect cells using AcLeu-Gly-Lys(Tfa)-AMC as substrate measured after 30 mins by fluorescence assay.
Sequence of Histone deacetylase 4 (P56524 whole entry): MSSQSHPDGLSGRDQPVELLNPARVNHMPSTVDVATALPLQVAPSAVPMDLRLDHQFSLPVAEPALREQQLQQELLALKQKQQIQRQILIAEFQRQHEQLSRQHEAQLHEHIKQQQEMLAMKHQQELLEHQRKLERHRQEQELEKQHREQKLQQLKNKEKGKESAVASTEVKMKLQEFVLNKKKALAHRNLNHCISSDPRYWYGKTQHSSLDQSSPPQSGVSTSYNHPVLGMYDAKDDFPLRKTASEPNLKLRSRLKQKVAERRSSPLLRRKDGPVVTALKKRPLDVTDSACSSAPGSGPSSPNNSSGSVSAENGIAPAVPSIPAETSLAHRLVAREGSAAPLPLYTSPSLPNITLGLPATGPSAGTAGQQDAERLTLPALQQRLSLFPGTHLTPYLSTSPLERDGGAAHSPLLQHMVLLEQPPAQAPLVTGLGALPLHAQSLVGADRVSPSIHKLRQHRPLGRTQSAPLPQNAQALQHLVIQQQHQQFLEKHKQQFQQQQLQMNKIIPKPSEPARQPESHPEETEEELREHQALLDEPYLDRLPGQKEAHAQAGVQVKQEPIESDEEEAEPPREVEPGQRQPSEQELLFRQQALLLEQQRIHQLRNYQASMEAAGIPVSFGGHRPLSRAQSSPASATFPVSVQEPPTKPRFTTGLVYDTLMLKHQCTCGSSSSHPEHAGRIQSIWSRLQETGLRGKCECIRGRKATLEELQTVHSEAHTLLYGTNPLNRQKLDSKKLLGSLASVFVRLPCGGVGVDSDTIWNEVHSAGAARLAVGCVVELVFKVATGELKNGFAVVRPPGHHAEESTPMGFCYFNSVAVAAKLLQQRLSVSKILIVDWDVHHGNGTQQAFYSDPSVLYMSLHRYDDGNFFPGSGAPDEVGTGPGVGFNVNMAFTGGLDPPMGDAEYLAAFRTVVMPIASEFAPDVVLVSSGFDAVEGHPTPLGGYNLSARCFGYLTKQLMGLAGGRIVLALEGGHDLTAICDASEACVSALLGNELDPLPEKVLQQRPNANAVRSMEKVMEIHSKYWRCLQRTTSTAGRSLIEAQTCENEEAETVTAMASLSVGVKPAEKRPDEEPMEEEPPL
Data set [2] is described as follows: Cmax in Beagle dog at 20 mg/kg, po by LC-MS/MS analysis. The class given is ADME, organism-based, Canis lupus familiaris. Set-up: route oral, dose 20 mg/kg. Conditions: in vivo.
The next data set has as its target Histone deacetylase 5 (Homo sapiens, UniProt Q9UQL6). Kind of data set: Inhibition of recombinant human full-length N-terminal GST-tagged HDAC5 expressed in baculovirus infected Sf9 insect cells using AcLeu-Gly-Lys(Tfa)-AMC as substrate measured after 30 mins by fluorescence assay.
In the next data set the target is T1, Histone deacetylase 7 (Homo sapiens, UniProt Q8WUI4).
T1 sequence (Q8WUI4 whole entry): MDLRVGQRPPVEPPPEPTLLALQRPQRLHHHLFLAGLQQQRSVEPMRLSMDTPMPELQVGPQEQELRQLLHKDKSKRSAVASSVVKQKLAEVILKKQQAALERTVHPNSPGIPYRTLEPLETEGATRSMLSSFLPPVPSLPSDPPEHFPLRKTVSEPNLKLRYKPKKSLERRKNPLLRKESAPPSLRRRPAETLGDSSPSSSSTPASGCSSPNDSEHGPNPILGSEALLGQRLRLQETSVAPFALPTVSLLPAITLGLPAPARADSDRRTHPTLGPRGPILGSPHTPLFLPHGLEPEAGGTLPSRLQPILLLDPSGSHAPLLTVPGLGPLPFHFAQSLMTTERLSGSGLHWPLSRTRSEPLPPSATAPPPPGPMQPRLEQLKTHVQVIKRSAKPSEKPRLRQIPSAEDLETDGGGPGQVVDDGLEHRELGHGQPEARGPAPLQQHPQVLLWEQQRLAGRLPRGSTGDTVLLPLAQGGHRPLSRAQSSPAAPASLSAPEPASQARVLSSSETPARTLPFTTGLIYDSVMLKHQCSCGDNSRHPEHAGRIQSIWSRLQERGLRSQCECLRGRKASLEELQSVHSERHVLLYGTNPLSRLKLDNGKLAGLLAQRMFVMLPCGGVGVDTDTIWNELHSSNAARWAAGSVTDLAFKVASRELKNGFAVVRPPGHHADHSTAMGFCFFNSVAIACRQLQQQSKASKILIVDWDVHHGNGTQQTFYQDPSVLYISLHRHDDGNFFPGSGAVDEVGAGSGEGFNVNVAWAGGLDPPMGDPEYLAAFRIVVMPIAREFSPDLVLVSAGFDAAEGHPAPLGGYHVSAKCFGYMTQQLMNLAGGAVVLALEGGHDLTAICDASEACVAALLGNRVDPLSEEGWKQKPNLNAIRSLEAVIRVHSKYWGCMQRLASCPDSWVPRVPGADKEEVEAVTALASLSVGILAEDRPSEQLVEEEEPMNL
As to the kind of experiment: Inhibition of HDAC7 (unknown origin) using AcLeu-Gly-Lys(Tfa)-AMC as substrate measured after 30 mins by fluorescence assay.

A short description of data set [3]: Tmax in Beagle dog at 20 mg/kg, po by LC-MS/MS analysis. The settings on record: in vivo. The format is ADME, organism-based, Canis lupus familiaris.
Data set [4] can be described thus: AUC (0 to t) in Beagle dog at 20 mg/kg, po by LC-MS/MS analysis. The class given is ADME, organism-based, Canis lupus familiaris. Set-up: dose 20 mg/kg. Conditions: in vivo.
For a further data set, the target named is Histone deacetylase 9 (Homo sapiens, UniProt Q9UKV0). As to the kind of experiment: Inhibition of recombinant human full-length N-terminal GST-tagged HDAC9 (1 to 1069 residues) expressed in wheat germ expression system using Ac-Leu-Gly-Lys(Tfa)-AMC as substrate measured after 30 mins by fluorescence assay.
Data set [5] deals with Histone deacetylase 3/NCoR1 (Homo sapiens, UniProt O15379). As to the kind of experiment: Inhibition of recombinant human GST-fused HDAC3/NCOR1 (397 to 503 residues) expressed in baculovirus infected insect cells using Ac-Leu-Gly-Lys(Ac)-AMC as substrate measured after 30 mins by fluorescence assay.
Sequence of Histone deacetylase 3/NCoR1 (O15379 whole entry, the tested form may be a part): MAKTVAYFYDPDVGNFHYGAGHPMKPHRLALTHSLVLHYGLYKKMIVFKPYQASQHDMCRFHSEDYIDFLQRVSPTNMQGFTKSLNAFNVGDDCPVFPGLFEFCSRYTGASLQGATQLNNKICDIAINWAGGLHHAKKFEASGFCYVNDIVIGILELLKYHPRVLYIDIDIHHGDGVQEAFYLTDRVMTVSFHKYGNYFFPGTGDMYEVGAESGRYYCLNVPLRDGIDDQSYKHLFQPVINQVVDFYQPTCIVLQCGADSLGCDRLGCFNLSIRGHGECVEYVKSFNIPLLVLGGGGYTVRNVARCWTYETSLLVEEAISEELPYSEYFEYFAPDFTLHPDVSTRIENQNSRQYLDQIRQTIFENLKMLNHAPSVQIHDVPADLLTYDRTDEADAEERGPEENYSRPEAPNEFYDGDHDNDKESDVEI
Sequence of Histone deacetylase 3/NCoR1 (O75376 whole entry, further chain, the tested form may be a part): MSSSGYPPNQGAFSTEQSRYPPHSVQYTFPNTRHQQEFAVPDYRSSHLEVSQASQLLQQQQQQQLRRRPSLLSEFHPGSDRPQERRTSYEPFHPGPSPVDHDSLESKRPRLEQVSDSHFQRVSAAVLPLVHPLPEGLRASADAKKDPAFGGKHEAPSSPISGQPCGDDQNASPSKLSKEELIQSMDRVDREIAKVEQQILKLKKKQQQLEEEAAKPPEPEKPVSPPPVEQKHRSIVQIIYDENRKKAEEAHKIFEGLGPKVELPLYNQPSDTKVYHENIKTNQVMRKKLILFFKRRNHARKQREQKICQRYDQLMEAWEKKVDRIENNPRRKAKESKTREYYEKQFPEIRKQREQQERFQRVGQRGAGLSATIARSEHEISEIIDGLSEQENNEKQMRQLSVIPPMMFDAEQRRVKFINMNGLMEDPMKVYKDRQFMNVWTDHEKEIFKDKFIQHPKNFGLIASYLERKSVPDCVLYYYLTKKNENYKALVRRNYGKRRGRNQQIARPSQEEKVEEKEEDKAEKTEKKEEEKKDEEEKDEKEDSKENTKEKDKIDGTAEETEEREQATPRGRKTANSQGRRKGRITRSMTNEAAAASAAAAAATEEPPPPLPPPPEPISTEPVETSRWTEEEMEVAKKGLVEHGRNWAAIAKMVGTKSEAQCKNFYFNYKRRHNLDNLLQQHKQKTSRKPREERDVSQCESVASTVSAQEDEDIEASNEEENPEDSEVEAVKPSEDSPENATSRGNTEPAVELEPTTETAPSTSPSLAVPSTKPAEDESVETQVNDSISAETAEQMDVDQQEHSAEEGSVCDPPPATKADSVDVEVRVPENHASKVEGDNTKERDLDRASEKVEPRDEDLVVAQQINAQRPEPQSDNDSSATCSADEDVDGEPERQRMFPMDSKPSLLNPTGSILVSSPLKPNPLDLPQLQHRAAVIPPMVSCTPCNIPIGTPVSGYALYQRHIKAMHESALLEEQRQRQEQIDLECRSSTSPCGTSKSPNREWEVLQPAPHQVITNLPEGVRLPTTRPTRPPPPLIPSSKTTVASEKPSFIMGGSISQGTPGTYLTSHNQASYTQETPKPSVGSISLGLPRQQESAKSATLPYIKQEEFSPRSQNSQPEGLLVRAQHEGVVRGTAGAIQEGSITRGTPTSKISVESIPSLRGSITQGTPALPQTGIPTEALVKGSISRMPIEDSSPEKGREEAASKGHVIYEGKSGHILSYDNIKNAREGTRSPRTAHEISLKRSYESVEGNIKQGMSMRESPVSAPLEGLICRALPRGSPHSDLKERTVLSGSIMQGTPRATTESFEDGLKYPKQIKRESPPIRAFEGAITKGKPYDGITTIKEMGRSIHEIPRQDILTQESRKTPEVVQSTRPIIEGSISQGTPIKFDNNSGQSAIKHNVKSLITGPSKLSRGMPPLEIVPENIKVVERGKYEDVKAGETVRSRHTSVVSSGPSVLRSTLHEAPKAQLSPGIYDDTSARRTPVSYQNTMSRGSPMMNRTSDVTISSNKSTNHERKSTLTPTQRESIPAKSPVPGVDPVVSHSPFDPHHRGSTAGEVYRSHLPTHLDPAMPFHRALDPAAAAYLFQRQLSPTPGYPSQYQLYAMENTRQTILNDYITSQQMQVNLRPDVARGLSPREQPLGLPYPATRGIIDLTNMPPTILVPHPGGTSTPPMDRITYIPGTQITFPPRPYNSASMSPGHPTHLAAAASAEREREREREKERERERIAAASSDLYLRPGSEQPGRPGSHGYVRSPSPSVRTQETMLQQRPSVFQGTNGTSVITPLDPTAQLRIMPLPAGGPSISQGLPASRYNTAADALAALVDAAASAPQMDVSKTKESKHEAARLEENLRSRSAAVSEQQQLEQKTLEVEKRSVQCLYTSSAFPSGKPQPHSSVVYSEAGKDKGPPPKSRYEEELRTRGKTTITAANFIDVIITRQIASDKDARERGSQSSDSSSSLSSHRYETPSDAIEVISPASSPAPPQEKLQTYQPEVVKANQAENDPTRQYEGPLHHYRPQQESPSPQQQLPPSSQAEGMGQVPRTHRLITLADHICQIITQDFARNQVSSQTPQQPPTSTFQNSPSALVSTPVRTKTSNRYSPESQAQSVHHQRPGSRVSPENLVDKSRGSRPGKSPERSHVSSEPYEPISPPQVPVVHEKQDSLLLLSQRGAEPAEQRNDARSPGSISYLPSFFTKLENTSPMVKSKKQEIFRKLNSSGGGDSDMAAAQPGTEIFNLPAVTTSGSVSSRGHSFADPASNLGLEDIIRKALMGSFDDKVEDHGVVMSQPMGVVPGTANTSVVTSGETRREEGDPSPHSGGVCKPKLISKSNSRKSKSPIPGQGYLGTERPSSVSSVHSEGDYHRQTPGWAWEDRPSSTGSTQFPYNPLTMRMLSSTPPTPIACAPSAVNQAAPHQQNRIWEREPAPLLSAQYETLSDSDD
The target in a further data set is T2, Histone deacetylase 8 (Homo sapiens, UniProt Q9BY41).
T2 sequence (Q9BY41 whole entry): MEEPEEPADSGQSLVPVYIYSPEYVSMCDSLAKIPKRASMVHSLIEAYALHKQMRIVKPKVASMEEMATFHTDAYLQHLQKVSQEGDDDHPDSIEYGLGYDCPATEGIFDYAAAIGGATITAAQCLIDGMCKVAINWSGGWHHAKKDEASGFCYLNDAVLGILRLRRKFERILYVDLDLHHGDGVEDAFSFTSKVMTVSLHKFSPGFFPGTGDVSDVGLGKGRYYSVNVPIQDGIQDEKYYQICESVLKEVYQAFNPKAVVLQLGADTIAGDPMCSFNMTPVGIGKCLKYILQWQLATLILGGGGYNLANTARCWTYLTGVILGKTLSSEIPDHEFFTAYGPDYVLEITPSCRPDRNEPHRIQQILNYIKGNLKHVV
Kind of data set: Inhibition of recombinant human full-length C-terminal His-tagged HDAC8 expressed in baculovirus infected Sf9 insect cells using Ac-Leu-Gly-Lys(Tfa)-AMC as substrate measured after 30 mins by fluorescence assay.

Another data set deals with T3, Histone deacetylase 11 (Homo sapiens, UniProt Q96DB2).
T3 sequence (Q96DB2 whole entry): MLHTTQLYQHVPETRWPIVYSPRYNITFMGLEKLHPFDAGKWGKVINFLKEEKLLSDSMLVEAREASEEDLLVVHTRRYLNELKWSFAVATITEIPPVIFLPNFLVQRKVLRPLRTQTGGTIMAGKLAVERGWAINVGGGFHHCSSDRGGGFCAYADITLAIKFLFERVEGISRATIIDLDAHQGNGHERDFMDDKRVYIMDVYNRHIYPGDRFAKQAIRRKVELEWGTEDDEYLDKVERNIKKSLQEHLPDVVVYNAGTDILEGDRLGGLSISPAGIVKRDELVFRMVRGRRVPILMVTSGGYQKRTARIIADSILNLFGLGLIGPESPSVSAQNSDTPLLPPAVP
As to the kind of experiment: Inhibition of recombinant human N-terminal His-tagged HDAC11 expressed in baculovirus infected Sf9 insect cells using Ac-Arg-His-Lys(Ac)-Lys(Ac)-AMC as substrate measured after 30 mins by fluorescence assay.

A further data set addresses Histone deacetylase 1 (Homo sapiens, UniProt Q13547). Kind of data set: Inhibition of recombinant human His-tagged HDAC1 expressed in insect cells using Ac-Leu-Gly-Lys(Ac)-AMC as substrate measured after 30 mins by fluorescence assay.
A further data set concerns the target Histone deacetylase 2 (Homo sapiens, UniProt Q92769). As to the kind of experiment: Inhibition of human full-length C-terminal FLAG-tagged HDAC2 expressed in baculovirus infected Sf9 insect cells using Ac-Leu-Gly-Lys(Ac)-AMC as substrate measured after 30 mins by fluorescence assay. The format is cell-based.
Data set [6] in a line: AUC (0 to infinity) in Beagle dog at 20 mg/kg, po by LC-MS/MS analysis. Conditions: in vivo. The format is ADME, organism-based, Canis lupus familiaris. Set-up: route oral, time infinity, dose 20 mg/kg.
The next data set deals with MDA-MB-231. Kind of data set: Antimetastatic activity against CM-Dil labeled human MDA-MB-231 cells xenografted in Zebrafish AB assessed as reduction in tail metastasis at 2.5 ug/ml measured after 5 days by fluorescence microscopic analysis. The format is functional, cell-based. Conditions: dose 2.5 µg/ml, time 5.0 day. Background: A xenograft is tissue or cells of one species grown in another, often human tumour cells in immunodeficient mice.

Sequence of Histone deacetylase 2 (Q92769 whole entry): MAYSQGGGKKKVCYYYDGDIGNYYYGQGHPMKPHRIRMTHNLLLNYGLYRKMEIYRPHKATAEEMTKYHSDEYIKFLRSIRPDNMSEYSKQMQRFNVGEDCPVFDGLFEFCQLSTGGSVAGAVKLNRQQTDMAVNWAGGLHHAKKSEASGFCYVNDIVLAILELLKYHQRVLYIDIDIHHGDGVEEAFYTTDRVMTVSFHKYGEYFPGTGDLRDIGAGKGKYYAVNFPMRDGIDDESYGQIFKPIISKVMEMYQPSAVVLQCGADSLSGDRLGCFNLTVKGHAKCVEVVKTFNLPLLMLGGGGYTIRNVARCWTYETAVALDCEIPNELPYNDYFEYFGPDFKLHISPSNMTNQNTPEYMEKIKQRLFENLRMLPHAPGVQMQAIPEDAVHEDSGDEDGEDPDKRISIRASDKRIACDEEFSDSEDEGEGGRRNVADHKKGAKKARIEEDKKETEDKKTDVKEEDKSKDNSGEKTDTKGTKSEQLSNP
Sequence of Histone deacetylase 1 (Q13547 whole entry): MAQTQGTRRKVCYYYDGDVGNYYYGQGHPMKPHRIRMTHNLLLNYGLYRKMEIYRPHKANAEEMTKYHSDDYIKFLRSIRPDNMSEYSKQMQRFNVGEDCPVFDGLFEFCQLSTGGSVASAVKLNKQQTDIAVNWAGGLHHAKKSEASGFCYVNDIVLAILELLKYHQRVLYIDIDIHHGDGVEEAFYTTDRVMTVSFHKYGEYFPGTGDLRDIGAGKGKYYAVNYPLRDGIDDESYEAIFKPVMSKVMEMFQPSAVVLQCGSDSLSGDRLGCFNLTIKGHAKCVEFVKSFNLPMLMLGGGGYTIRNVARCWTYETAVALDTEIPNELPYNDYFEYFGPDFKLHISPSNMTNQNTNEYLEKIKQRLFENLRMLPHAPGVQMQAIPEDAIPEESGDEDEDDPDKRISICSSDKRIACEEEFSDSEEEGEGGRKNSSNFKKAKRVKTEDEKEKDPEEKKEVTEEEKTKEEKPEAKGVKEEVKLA

The IC50 is the concentration at which inhibition is half-maximal. By Cmax is commonly meant the maximum level reached in the sampled fluid or tissue. A word on the Tmax: it is the time at which the peak concentration occurs. In general, AUC(0-t) refers to the area under the concentration-time curve up to a stated or last time point. Low readings indicate low exposure, high ones high exposure. As usually defined, the AUC is the area under the concentration-time curve, a measure of exposure. Higher therefore signals high exposure. `COc1cc(OC)c2c(N3CCN(C)CC3)nc(-c3cc(C)c(OCCCCCC(=O)NO)c(C)c3)nc2c1` gave a t1/2 in data set [1] of 74.4 min. Besides, the concentration for half-maximal inhibition (IC50) on Histone deacetylase 4 is more than 1000 nM; at Histone deacetylase 5, more than 1000 nM; against Histone deacetylase 7, more than 1000 nM; at Histone deacetylase 9, more than 1000 nM; in data set [5] it was 79.2 nM; at Histone deacetylase 8, 378 nM. In addition, the half-inhibitory concentration (IC50) on Histone deacetylase 11 was more than 1000 nM; on Histone deacetylase 1 it was 86.9 nM; against Histone deacetylase 2, 97.3 nM. The maximum concentration (Cmax) in data set [2] amounted to 120.36 ng/mL. Also, the time of peak concentration (Tmax) in data set [3] came to 47.4 min. In addition, the AUC(0-t) in data set [4] is 1280 ng·h/mL. In data set [6], this molecule returned an AUC of 1289.4 ng·h/mL.
Molecule `O=C(CCCCCCC(=O)Nc1ccccc1)NO` [VORINOSTAT] displayed a t1/2 in [1] of 19.2 min. In addition, the outcome in the data set on MDA-MB-231 was Active. Further, the highest concentration (Cmax) in [2] was 118.93 ng/mL. Further, the Tmax in data set [3] is 9 min. Moreover, the AUC(0-t) in data set [4] stood at 965 ng·h/mL. The area under the curve (AUC) in [6] was 968.32 ng·h/mL.
